Reference: patent US9497963B2, “Methods and compositions for control of gypsy moth, Lymantria dispar” (Simon Fraser University, priority 2008, dated 2016)
Entries after “also recorded” stand apart in the source; their conditions may differ.

Columns and labels:
[1] = test system: male gypsy moth antenna; test: Coupled gas chromatographic-electroantennographic detection (GC-EAD); set-up: species or system Lymantria dispar; conditions: EAD peak size and shape (sharp/broad)
Outline: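 GC column effluent split between flame ionization detector and an excised male moth antenna held between saline-filled glass capillary electrodes, tip removed, in a warm air stream. Antennal potentials assigned to compounds by matching retention times with FID peaks.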

[2] = test system: male gypsy moth antenna response to mixed pheromone/modulator plume; test: EAG peak broadening (PB) (Example 11); set-up: species or system Lymantria dispar; conditions: for activity (% peak broadening): mixed plume, 100 μg compound and 100 ng pheromone (puff v vs puff ii)
Protocol: A mixed pheromone/modulator plume could elicit a prolonged response (FIG. 1A, puff v; FIG. 2), and this was termed peak broadening (PB). PB was calculated from the EAG traces as follows: PB=100×(Δtv−Δtii)/Δtii
Where Δt was the width of the EAG peak (in s) from the start of the depolarization to the return to background potential.

[3] = test system: gypsy moths; test: Field test of trap catches, Northern Japan 2009 (Example 12); type: in vivo, Lymantria dispar; conditions: (+)-dis 40 μg/lure & compound 40 mg/lure, vs (+)-dis alone
Protocol: Ten traps were used per treatment. The solvent used to deliver the compounds onto the lures was doubly distilled hexane. The hexane was evaporated prior to packing and shipping the lures. The field test was conducted in 10 replicates in Northern Japan. The test was conducted Aug. 16-18, 2009, in an area where gypsy moths are known to live. […] Traps were arranged randomized, placed on platforms. The experiment was conducted blind. The lures contained 40 μg disparlure/lure, a low dose for a field trial (typically 100 μg-1 mg are used). For each treatment, 10 traps were deployed.

[4] = test system: male gypsy moth antenna; test: EAG dose response and ratio tests of (+)-disparlure:3c{1,3} (Example 16); set-up: species or system Lymantria dispar; conditions: (+)-disparlure:compound ratios about 1:300 to about 1:2000 or greater
Protocol: Dose response and ratio tests were done at each of the following (+)-disparlure concentrations: 1 ng, 10 ng, 50 ng, 100 ng, 500 ng and 1000 ng, the following ratios of (+)-disparlure:3c{1,3} were tested: 1:100, 1:300, 1:500, 1:700, 1:1000, 1:1500 and 1:2000 (FIG. 19).

[5] = test system: gypsy moth sensillum; test: Single sensillum recordings; set-up: species or system Lymantria dispar; conditions: (+)-disparlure and compound mixed 1:1000
[6] = test system: moths; test: Simple behavioural tests (films of moths exposed to puffs); type: in vivo, Lymantria dispar; conditions: (+)-disparlure:compound 1:1000 vs pheromone alone
[7] = test system: response of L. dispar antennae to (+)-disparlure; test: Competitive electroantennogram (EAG) screen, inhibition of response to (+)-disparlure (Example 4); set-up: species or system Lymantria dispar; conditions: for inhibition at 0.001 mg / inhibition at 0.01 mg / inhibition at 0.1 mg: Lymantria dispar, means ± S.E.; for inhibition at 0.001 mg: dose 1 μg on cartridge; for inhibition at 0.01 mg: dose 10 μg on cartridge; for inhibition at 0.1 mg: dose 100 μg on cartridge
Protocol: In this assay, libraries and individual compounds are tested for their ability to inhibit the antennal response to the sex attractant pheromone of the gypsy moth, (7R,8S) 2-methyl-7,8-epoxyoctadecane, also known as (+)-disparlure. The controls consisted of a puff of clean air (negative) or of air passed over a cartridge impregnated with (+)-disparlure (100 ng) (positive). The treatments consisted of 100 ng of (+)-disparlure in combination with a compound or library at 1, 10 or 100 μg, on a cartridge over which the air puff was passed. The small arrows above the trace denote the times where the air was puffed over the antenna.
For some compounds, such as the para Compounds 2c{n}, 2c{n,n} and libraries 3c{n,1-5}, EAG competitive assays were performed to investigate whether the diethers inhibit the response of L. dispar antennae to the main component of the sex attractant pheromone cis-(7R,8S)-epoxy-2-methyloctadecane [(+)-disparlure] (FIG. 4). For EAGs a male moth antenna was mounted and placed in front of a stimulus-delivery glass tubing (160×5 mm ID) with a side orifice (2 mm diam) near (2 cm) the distal opening. The tubing was connected to one port of an apparatus (Stimulus Controller CS-05, Syntech Research and Equipment, NL-1200BM Hilversum, The Netherlands) that generated a constant stream of clean air (300 ml/min). The second port of the apparatus was connected to a Pasteur pipette inserted through the side orifice of the stimulus-delivery tubing. The test stimulus was applied to a disc of Whatman #1 filter paper inside the Pasteur pipette and was discharged through a 0.3-sec pulse of air (600 ml/min) Receptor potentials of the antennae in response to test stimuli were recorded with a Syntech IDAC probe, amplifier and interfaced board, and were analyzed with EAG Syntech Software Version 2.4 (1996) Inhibition (%) was calculated as: % inhibition=(Dd−Ds)/Dd×100 (eq. 1)
Where Dd is the depolarization observed with pure disparlure (corrected for clean air background) and Ds is the depolarization with disparlure+sample. See FIG. 4 for a representative EAG inhibition assay trace.

[8] = test system: male gypsy moth antenna response to odorants other than (+)-1; test: Long-term inhibition of responses to other pheromone and host plant odorants, EAG (Example 8, first objective); set-up: species or system Lymantria dispar; conditions: antagonist 100 μg
Protocol: To determine whether the long-term inhibitory effects of 3c{2,3} and DEET are specific to (+)-1 or also apply to other odorants, compound 3c{2,3} and DEET were tested further with other odorants: (−)-1, racemic 1, dispar alkene, methyl eugenol and 1-hexanol.
These included (−)-1, racemic 1, dispar alkene (the alkene corresponding to the carbon framework of 1), methyl eugenol (a characteristic oak wood odorant) and 1-hexanol (a green leaf volatile, shown previously to be detected by gypsy moth antennae). For the pure odorant puffs, (−)-1 and racemic 1 were administered at 100 ng/cartridge, the alkene, methyl eugenol was administered at 1 μg/cartridge and 1-hexanol was administered at 100 μg/cartridge. The antagonists were both administered at 100 μg/cartridge, mixed with the appropriate dose of the odorant. The puff order was: i) air, ii) pure odorant, iii) odorant+antagonist, iv) pure odorant. All puffs were corrected for the air response as in Eq. 1. STI values were obtained from the depolarization […]. LTI values were obtained by comparing the depolarization of puff iv relative to that of puff ii.

[9] = odorant racemic disparlure 100 ng

Compound | GC-EAD activity [1] | activity (% peak broadening) [2] [%] | trap catches in the field [3] | inhibition at 0.001 mg [7] [%] | inhibition at 0.01 mg [7] [%] | inhibition at 0.1 mg [7] [%] | inhibitory activity on antennal pheromone responses (in words) [7] | also measured
CCCOc1ccc(OC)cc1 [3c{1,3}, 1-methoxy-4-propoxy-benzene] | + sharp | 175 ± 23 | enhanced the trap catches significantly | – | – | – | – | peak broadening / prolongation of the EAG signal (in words) ([2]; 1:1000 ratios): significant prolongation of the EAG signal; also recorded: strongest peak broadening compound; EAG depolarization shape (in words) [4]: increasingly broad depolarizations; enhancement of neuronal activity [5]: significant; behaviour of moths exposed to puffs [6]: excited and violently flap their wings much longer
CCOc1ccc(OCC)cc1 [3c{2,2}, 1,4-Diethoxy benzene] | Trace | 71 ± 30 | – | 4 ± 13 | 45 ± 6 | -3 ± 13 | – | –
CCCOc1ccc(OCC)cc1 [3c{2,3}, 1-ethoxy-4-propoxy benzene] | None | 94 ± 24 | enhanced the trap catches significantly | – | – | – | – | long-term activity (%) ([8]; odorant 1-hexanol 100 μg): 29 ± 18%; short-term activity (%) ([8]; odorant 1-hexanol 100 μg): −34 ± 28%; long-term activity (%) ([8]; odorant (−)-disparlure 100 ng): 43 ± 12%; long-term activity (%) ([8]; odorant dispar alkene 1 μg): 39 ± 12%; short-term activity (%) ([8]; odorant dispar alkene 1 μg): −244 ± 15%; long-term activity (%) ([8]; odorant methyl eugenol 1 μg): 46 ± 24%; long-term activity (%) [8, 9]: 69 ± 5%; short-term activity (%) [8, 9]: −154 ± 45%
CC(C)CCOc1ccc(OCCC(C)C)cc1 [3c{5,5}, 1,4-Di-(3-methyl-butyloxy) benzene] | None | – | – | 63 ± 12 | 38 ± 22 | 64 ± 11 | moderate inhibitory activity | –
COc1ccc(OC)cc1 [3c{1,1}, 1,4-Dimethoxy benzene] | + sharp | 77 ± 12 | – | 4 ± 6 | -8 ± 9 | 38 ± 7 | – | –
CCCOc1ccc(OCCC)cc1 [3c{3,3}, 1,4-Dipropoxy benzene] | None | – | – | 5 ± 16 | 55 ± 7 | -3 ± 15 | moderate inhibitory activity | –
